The values below come from BindingDB's records for patent US12194050 (Richter Gedeon, 2025).

In the assay the target is Neuronal acetylcholine receptor subunit alpha-7 (Homo sapiens, UniProt P36544). Nature of the assay: Ca2+ Fluorometry. The procedure:
α7 cells stably expressing human α7 nAchR were cultured in the medium detailed above, and were split twice a week. For the fluorometric measurements of cytosolic Ca2+ ion concentration ([Ca2+]i) cells were seeded in 96-well microplates at a density of 60000 cells/well and maintained overnight in a tissue culture incubator at 37° C. under an atmosphere of 95% air/5% CO2. The plating medium was identical with the culture medium. 50 μl of the growth medium was aspirated with a cell washer (BioTek Elx405UCVWS). Then 50 μl/well Calcium 5 kit diluted 2-fold in assay buffer was added manually using an 8-channel pipette. […] Baseline and agonist-evoked [Ca2+]i-changes were monitored with FlexStation II (Molecular Devices, Sunnyvale, Calif.), a plate reader fluorometer with integrated 8-channel fluid addition capability. Fluorescence measurements were carried out at 37° C. […] Baseline was recorded for 20 seconds followed by agonist stimulation. 50 μl 4× concentrated agonist solution was added to the cells using the pipettor of FlexStation II and fluorescence was monitored for an additional 40 seconds. […] In all experiments, all treatments were measured in multiple wells in parallel, and the mean ΔF/F values were used for analysis.

Neuronal acetylcholine receptor subunit alpha-7, sequence (P36544 whole entry): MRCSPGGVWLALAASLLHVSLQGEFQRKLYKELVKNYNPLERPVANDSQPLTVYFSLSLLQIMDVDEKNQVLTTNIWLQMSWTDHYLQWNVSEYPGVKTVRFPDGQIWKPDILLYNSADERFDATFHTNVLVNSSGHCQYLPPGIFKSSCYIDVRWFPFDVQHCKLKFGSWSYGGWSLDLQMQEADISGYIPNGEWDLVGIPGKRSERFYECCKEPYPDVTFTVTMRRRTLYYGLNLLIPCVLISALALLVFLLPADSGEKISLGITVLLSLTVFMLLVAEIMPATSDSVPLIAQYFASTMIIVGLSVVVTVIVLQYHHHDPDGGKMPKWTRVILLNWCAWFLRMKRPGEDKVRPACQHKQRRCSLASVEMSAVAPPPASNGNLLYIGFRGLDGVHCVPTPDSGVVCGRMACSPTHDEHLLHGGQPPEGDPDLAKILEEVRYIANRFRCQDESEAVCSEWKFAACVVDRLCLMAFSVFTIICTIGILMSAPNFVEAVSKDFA

Turning to `CCN1C(C(=O)Nc2cccc(C(F)(F)F)n2)=CC([C@H]2CC[C@H](C(F)(F)F)CC2)=NS1(=O)=O` [US12194050, Example 53], the EC50 (as a rule, the concentration giving half of the maximal effect) stood at 90 nM.
